Test results as given in patent US20220369688A1, “ORAL COMPOSITIONS AND RELATED METHODS FOR REDUCING THROAT IRRITATION” (NICOVENTURES TRADING LIMITED, priority 2021, published 2022).
Read-outs that look alike come from different tables or passages of the source.

Tests used:
[1] = cited from earlier work
[2] = organic acid, octanol/water; cited from earlier work
[3] = cited from earlier work; remark: listed apart in the source
[4] = 1,000 ppm nicotine, pH 6.5
human buccal tissue = details: nicotine solution at pH=6 relative to pH 8.1; cited from earlier work
[5] = 1,000 ppm nicotine, 2 equivalents of octanoic acid (sodium octanoate), pH 6.5
Method: A pH probe was submerged in the resulting liquid and HCl (0.05 M) was added under stirring to bring the solution to pH 6.5. The flask weight was then brought up to 100 grams with RO water. […] Partitioning was performed by removing aliquots (10 mL) of each solution and placing into separate 20 ml scintillation vials. Octanol (10 ml) was added to each vial. The vials were then placed on a wrist action shaker for 20 minutes. Following agitation, the vials were allowed to separate for 30 min. and an aliquot (100 μl) of each octanol layer was removed and diluted with 900 μl octanol in 2 mL GC/MS vials.

CC(/C=C/C=C(C)/C=C/C(=O)O)=C\C=C\C=C(C)\C=C\C=C(C)\C=C\C(=O)O (stereo in doubt) [norbixin, (2E,4E,6E,8E,10E,12E,14E,16E,18E)-4,8,13,17-tetramethylicosa-2,4,6,8,10,12,14,16,18-nonaenedioic acid]
solubility in water [1]: water soluble

ethyl benzoic acid
logP [2]: 2.9

isopropyl benzoic acid
logP [2]: 3.5

O=C(O)C(O)C(O)C(=O)O (centres unmarked) [tartaric acid]
logP [2]: −1.9

CC(=O)CCC(=O)O [levulinic acid]
logP [2]: −0.49

CC(C)[C@@H]1CC[C@@H](C)C[C@H]1OC(=O)CCC(=O)O [monomenthyl succinate]
logP [2]: 3

CN1CCCC1c1cccnc1 (centres unmarked) [nicotine]
log Ka1 ([3]; pyridine ring nitrogen): 3.41 | log Ka2 ([3]; pyrrolidine ring nitrogen): 8.02 | % nicotine in octanol ([4]; 10 eq. benzoic acid (sodium benzoate)): ~52% | % nicotine in octanol ([4]; 10 eq. octanoic acid (sodium octanoate)): ~75% | factor by which diffusion rate is reduced (human buccal tissue): ~7 | nicotine partitioned into octanol [5]: ~67%

COC(=O)/C=C/C(C)=C\C=C\C(C)=C\C=C\C=C(C)\C=C\C=C(C)\C=C\C(=O)O [bixin, (2E,4E,6E,8E,10E,12E,14E,16Z,18E)-20-methoxy-4,8,13,17-tetramethyl-20-oxoicosa-2,4,6,8,10,12,14,16,18-nonaenoic acid]
solubility in water [1]: insoluble in water

CCCCCCCC(=O)O [octanoic acid]
logP [2]: 3.05

O=C(O)c1ccccc1 [benzoic acid]
concentration in octanol (1000 ppm nicotine in unbuffered water with 1 molar equivalent of sodium benzoate, 100 μl octanol aliquot diluted in 900 μl): 19.2 ppm | benzoic acid molarity in octanol in terms of nicotine mass (1000 ppm nicotine, 1 molar equivalent sodium benzoate): 25.5 ppm nicotine

CCCCCCCS(=O)(=O)O [1-heptanesulfonic acid]
logP [2]: 0.88
